What was measured:
[1] = system: human peripheral blood mononuclear cells; experiment: Induction of IL-2 production of PHA-M-stimulated human peripheral blood mononuclear cells (Example 2); assay type: cell-based; conditions: PHA-M 5 μg/ml, 3 days, ELISA (FIG. 3)
Description: Human peripheral blood mononuclear cells were introduced into a human complete medium (i.e., RPMI-1640 supplemented with 10% heat-inactivated FBS, 100 U/ml penicillin, and 100 μg/ml streptomycin) to prepare a cell suspension (1×10^6 cells/ml). Phytohemagglutinin M (PHA-M) was added thereto to the final concentration of 5 μg/ml, and Compound (I) or an EGFR tyrosine kinase inhibitor (AZD9291) was further added thereto to each final concentration. This culture solution was seeded in a 96-well plate at 200 μl/well and then cultured in an incubator at 37° C. in the presence of 5% CO2 for 3 days. The culture supernatant was recovered, and the concentration of IL-2 therein was measured via ELISA using the anti-hIL-2 antibody.

[2] = system: MC38; experiment: Tumor volume of subcutaneous mouse colon cancer cell line, in vivo model (Example 9); conditions: Compound (I) 50 mg/kg, compared with control group (FIG. 11)
Description: (§1) A cell suspension of the mouse colon cancer cell line MC38 was prepared with the use of PBS(-) and 50% Matrigel, and the cell suspension was injected subcutaneously into mice at 1×10^6 cells/mouse. The mice were divided into groups when the average subcutaneous tumor volume reached approximately 50 mm^3, Compound (I) was administered at 50 mg/kg or the anti-PD-1 antibody was administered at 100 μg/mouse, and the tumor volume was measured with the elapse of time. The tumor volume was determined on the basis of the longer diameter and the shorter diameter of the tumor measured percutaneously in accordance with Equation A shown below.
(§2) Tumor volume (mm^3)=longer diameter (mm)×shorter diameter (mm)^2/2 (Equation A)

[3] = system: colon26; experiment: Analysis of immunocytes in spleen cells in mouse model subcutaneously implanted with colon cancer cell line (Example 6); assay type: in vivo; conditions: Compound (I) 50 mg/kg and/or anti-PD-1 antibody 100 μg/mouse
Description: A cell suspension of the mouse colon cancer cell line (colon26) was prepared with the use of PBS(-) and 50% Matrigel, and the cell suspension was implanted into the syngeneic BALB/c mice via subcutaneous injection at 2×10^3 cells/mouse. The mice were divided into groups based on their body weights 1 day after implantation, and Compound (I) was administered thereto at 50 mg/kg and/or the anti-PD-1 antibody was administered thereto at 100 μg/mouse. A control group to which neither Compound (I) nor the anti-PD-1 antibody had been administered was also prepared. The spleen cells were sampled 21 days after implantation and analyzed via flow cytometry with the use of antibodies each reacting with a relevant immunocyte surface marker.

[4] = biological target: EGFR tyrosine kinase (Homo sapiens, UniProt P00533); conditions: known from WO 2013/125709; cited from earlier work
[5] = system: C57BL/6N mouse spleen cells mixed with irradiated BALB/c mouse spleen cells; experiment: T cell modulation through mixed lymphocyte reaction, 3H-Thd uptake (Example 3); assay type: cell-based; conditions: allogeneic mixed spleen cells, 3 days culture (FIG. 4)
Excerpt: A mixed lymphocyte reaction (MLR) is a representative experimentation technique for T cell modulation described in, for example, J. Exp. Med. 127 (5): 879-90, 1968. The influence of Compound (I) imposed on T cell modulation through this reaction was examined.
Spleens were extracted from C57BL/6N mice and BALB/c mice, grinded with glass slides with frosted areas, and then subjected to hemolysis, so as to obtain spleen cells. The C57BL/6N mouse spleen cells and the BALB/c mouse spleen cells were introduced into a complete medium (i.e., RPMI-1640 supplemented with 10% heat-inactivated FBS, 100 U/ml penicillin, 100 μg/ml streptomycin, and 55 μM 2-mercaptoethanol). The BALB/c mouse spleen cells were irradiated with 30 Gy X-ray to destroy the growth activity. The spleen cells of these allogeneic mice were each added to the final concentration of 1×10^5 cells/well and mixed (Alo), and Compound (I) or the EGFR tyrosine kinase inhibitor (i.e., AZD09291 or Erlotinib) adjusted to relevant concentrations was added thereto. As a control sample, a mixture of syngeneic C57BL/6N mouse spleen cells (Syn) was also prepared. The culture solution was seeded in a 96-well plate at 200 μl/well and then cultured in an incubator at 37° C. in the presence of 5% CO2 for 3 days. […] The amount of 3H-Thd uptake was measured using a liquid scintillation counter.

[6] = system: K1735M2; experiment: In vitro growth of mouse melanoma cell line K1735M2, CellTiter-Glo2.0 (Reference Example 1); assay type: cell-based; conditions: K1735M2, 3 days culture
Description: The mouse melanoma cell lines B16F10 and K1735M2 and the mouse colon cancer cell line MC38 were seeded in a 96-well plate at 3×10^3 cells/well. Compound (I) or the EGFR tyrosine kinase inhibitor (i.e., Erlotinib, Afatinib, AZD9291, or Co1686 (Rociletinib)) that had been diluted to the given concentration was added 24 hours later. Thereafter, culture was conducted for 3 days, and the number of cells was determined using CellTiter-Glo2.0 (Promega, G9243).

[7] = system: MC38; experiment: Tumor volume of subcutaneous mouse colon cancer cell line, alone or combined with anti-PD-1 antibody, in vivo model (Example 11)
Description: as §1, with “(50 mg/kg)” for “was administered at 50 mg/kg”, “antibody (50 μg/mouse)” for “antibody”, “thereto alone or Compound (I) (50 mg/kg) was administered in combination with the anti-PD-1 antibody (50 μg/mouse),” for “at 100 μg/mouse,”
as §2

[8] = system: EG.7-OVA; experiment: Peripheral blood immunocyte analysis in mouse model subcutaneously implanted with OVA-expressing thymoma cell line (Example 5); assay type: in vivo; conditions: Compound (I) 50 mg/kg, 14 days after implantation, compared with control group and anti-PD-1 antibody group (FIG. 6)
Description: A cell suspension of the OVA-expressing mouse thymoma cell line (EG.7-OVA) was prepared with the use of PBS(-) and 50% Matrigel, and the cell suspension (1×10^4 cells/mouse) was implanted into the syngeneic C57BL/6n mice via subcutaneous injection. The mice were divided into groups based on their body weights 1 day after implantation, and Compound (I) was administered thereto at 50 mg/kg or the anti-PD-1 antibody was administered thereto at 100 μg/mouse. A control group to which neither Compound (I) nor the anti-PD-1 antibody had been administered was also prepared. The peripheral blood was sampled 14 days after implantation and analyzed via flow cytometry with the use of antibodies each reacting with a relevant immunocyte surface marker, so as to determine the relative number of CD4-positive cells, CD8-positive cells, and CD4-negative, CD8-negative, and NK1.1-positive cells. […] In the group to which Compound (I) had been administered, the number of all cells increased, compared with the control group and the group to which the anti-PD-1 antibody had been administered.

[9] = 21 days after implantation (FIG. 7)
[10] = 21 days after implantation, compared with control group (FIG. 8)

Chain of EGFR tyrosine kinase (P00533 25-1210): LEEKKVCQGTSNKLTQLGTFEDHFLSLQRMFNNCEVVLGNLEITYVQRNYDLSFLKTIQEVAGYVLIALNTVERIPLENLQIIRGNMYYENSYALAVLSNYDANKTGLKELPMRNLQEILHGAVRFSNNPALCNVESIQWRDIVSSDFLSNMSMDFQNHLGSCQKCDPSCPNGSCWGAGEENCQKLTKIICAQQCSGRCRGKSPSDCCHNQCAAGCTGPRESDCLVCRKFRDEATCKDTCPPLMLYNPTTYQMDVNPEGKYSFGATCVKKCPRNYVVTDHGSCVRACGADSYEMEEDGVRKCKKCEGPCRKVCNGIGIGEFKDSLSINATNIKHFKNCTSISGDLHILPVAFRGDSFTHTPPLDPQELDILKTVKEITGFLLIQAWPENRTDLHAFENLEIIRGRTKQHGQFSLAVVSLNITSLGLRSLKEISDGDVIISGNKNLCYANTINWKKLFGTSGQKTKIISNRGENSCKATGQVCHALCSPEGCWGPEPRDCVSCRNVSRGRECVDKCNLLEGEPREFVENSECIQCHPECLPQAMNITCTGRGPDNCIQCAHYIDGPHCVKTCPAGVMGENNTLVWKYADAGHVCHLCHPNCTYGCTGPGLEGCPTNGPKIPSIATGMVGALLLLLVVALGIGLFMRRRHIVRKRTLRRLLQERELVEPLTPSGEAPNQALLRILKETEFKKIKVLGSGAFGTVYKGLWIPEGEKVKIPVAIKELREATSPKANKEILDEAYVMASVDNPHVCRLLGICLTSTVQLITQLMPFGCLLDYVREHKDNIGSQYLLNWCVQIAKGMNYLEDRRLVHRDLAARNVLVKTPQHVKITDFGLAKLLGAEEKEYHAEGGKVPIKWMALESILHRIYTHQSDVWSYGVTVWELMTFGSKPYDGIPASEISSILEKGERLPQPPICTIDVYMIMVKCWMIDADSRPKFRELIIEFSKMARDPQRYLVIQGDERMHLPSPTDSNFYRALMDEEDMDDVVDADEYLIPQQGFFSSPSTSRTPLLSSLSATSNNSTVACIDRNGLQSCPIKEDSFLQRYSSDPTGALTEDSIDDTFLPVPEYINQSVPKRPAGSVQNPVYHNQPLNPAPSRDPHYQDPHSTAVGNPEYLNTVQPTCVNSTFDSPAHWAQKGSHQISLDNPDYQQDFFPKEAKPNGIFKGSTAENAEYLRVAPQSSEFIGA

C=CC(=O)N[C@H]1CCc2c(-c3cnc4ccccc4c3)c3c(N)ncnc3n2C1 [Compound (I), (S)—N-(4-amino-5-(quinolin-3-yl)-6,7,8,9-tetrahydropyrimido[5,4-b]indolizin-8-yl)acrylamide]
concentration of IL-2 produced by human peripheral blood mononuclear cells in the culture supernatant [1]: induced IL-2 production | extent of tumor growth inhibition (tumor volume) [2]: greater | relative number of CD4-positive and CD69-positive cells in spleen cells [3, 9]: greater than those in the control group | relative number of CD4-positive, CD44-positive, and CD62L-negative cells in spleen cells [3, 9]: greater than those in the control group | CD44 expression level in CD4-positive cells (MFI) [3, 10]: increased | CD62L expression level in CD4-positive cells (MFI) [3, 10]: decreased | inhibition of EGFR tyrosine kinase [4]: inhibit EGFR tyrosine kinase with high selectivity | amount of 3H-Thd uptake (amount of T cells grown through the mixed lymphocyte reaction) [5]: induced the growth of T cells | suppression of cell growth (number of cells) [6]: did not suppress the growth of any cells | extent of tumor growth inhibition (tumor volume) ([7]; Compound (I) 50 mg/kg alone, compared with control group (FIG. 13)): greater | potentiation of the activity of the anti-PD-1 antibody (tumor volume) ([7]; Compound (I) 50 mg/kg in combination with anti-PD-1 antibody 50 μg/mouse (FIG. 13)): potentiate the immunomodulation activity of the anti-PD-1 antibody | relative number of CD4-negative, CD8-negative, and NK1.1-positive cells in peripheral blood [8]: increased | relative number of CD4-positive cells in peripheral blood [8]: increased | relative number of CD8-positive cells in peripheral blood [8]: increased

— patent US20170202838A1, “IMMUNOMODULATOR” (TAIHO PHARMACEUTICAL CO., LTD., priority 2015, published 2017)
